In publication PMC6379670, “An ultra-high affinity ligand of HIV-1 TAR reveals the RNA structure recognized by P-TEFb” (Nucleic Acids Research, 2018):
Non-standard residues stand in square brackets, D forms with d. Residues, ends and D or L forms follow the SMILES beside them. hArg = N=C(N)NCCCC[C@H](N)C(=O)O; Orn = NCCC[C@H](N)C(=O)O; Dab = NCC[C@H](N)C(=O)O

Biological target: HIV-1 TAR RNA
Assay type: binding
Conditions: EMSA, 32P radiolabeled HIV-1 TAR RNA, [RNA]=75pM; Table 1; read-out: K D (HIV)
Procedure: Electro Mobility Shift Assays (EMSA) and 2-aminopurine fluorescence ([35]) were used to measure peptide binding. For EMSA, all RNAs were 5′-dephosphorylated ([25],[26]) and 5′-rephosphorylated using T4 Polynucleotide Kinase (PNK); shifts were performed and analyzed as previously described ([14]). The P-TEFb/Tat1:57/AFF4 binding assays were run as described ([11]), with protein samples generously donated by Drs Ursula Schulze-Gahmen and James Hurley, but binding buffers contained 250× fold excess yeast tRNA. JB181-bound samples were prepared with 3× excess labeled HIV-TAR prior to titration with the pre-formed P-TEFb/Tat1:57/AFF4 complex.
Fig. S1. a) HIV-1 TAR, BIV TAR and 7SK-SL4 RNAs have similar secondary structures, but the JB181 peptide discriminates between them. […]
tightly than BIV TAR (3.3 nM) or 7SK (>3 μM) RNAs. b) EMSA of representative JB-peptides with 32P radiolabeled HIV-1 TAR RNA ([RNA]=75pM). The peptide concentration increases from left to right, as indicated. The dissociation constant can be estimated by the peptide concentration where there is an approximate 1:1 ratio (as established by visual inspection) between free RNA and complex, since the RNA concentration is much lower than the KD.
(1 picture or pasted object on this page, not shown here)

Structure (SMILES)	Kd [nM]
CC[C@H](C)[C@@H]1NC(=O)[C@H](CCCNC(=N)N)NC(=O)[C@H](CCCNC(=N)N)NC(=O)CNC(=O)[C@H](CCCCN)NC(=O)[C@H](CCCNC(=N)N)NC(=O)[C@H]([C@@H](C)O)NC(=O)[C@H](CCCNC(=N)N)NC(=O)[C@H](C(C)C)NC(=O)[C@H](CCCN)NC(=O)[C@@H]2CCCN2C(=O)[C@H]2CCCN2C(=O)[C@H]([C@@H](C)CC)NC(=O)[C@H](CCCNC(=N)N)NC1=O [JB58] (cyclo([Orn]VRTRKGRRIRI[dP]P))	3 ± 0.3
CC[C@H](C)[C@@H]1NC(=O)[C@H](CCCNC(=N)N)NC(=O)[C@H](CCCNC(=N)N)NC(=O)CNC(=O)[C@H](CCCCN)NC(=O)[C@H](CCCNC(=N)N)NC(=O)[C@H]([C@@H](C)O)NC(=O)[C@H](CCCNC(=N)N)NC(=O)[C@H](C(C)C)NC(=O)[C@H](CCN)NC(=O)[C@@H]2CCCN2C(=O)[C@H]2CCCN2C(=O)[C@H]([C@@H](C)CC)NC(=O)[C@H](CCCNC(=N)N)NC1=O [JB59] (cyclo([Dab]VRTRKGRRIRI[dP]P))	1 ± 0.3
CC[C@H](C)[C@@H]1NC(=O)[C@H](CCCNC(=N)N)NC(=O)[C@H](CCCNC(=N)N)NC(=O)CNC(=O)[C@H](CCCCN)NC(=O)[C@H](CCCNC(=N)N)NC(=O)[C@H]([C@@H](C)O)NC(=O)[C@H](CCCNC(=N)N)NC(=O)[C@H](C(C)C)NC(=O)[C@H](CCN)NC(=O)[C@@H]2CCCN2C(=O)[C@H]2CCCN2C(=O)[C@H](CC(C)C)NC(=O)[C@H](CCCNC(=N)N)NC1=O [JB185] (cyclo([Dab]VRTRKGRRIRL[dP]P))	0.5 ± 0.1

Same assay, conditions: EMSA; positional scanning library, Table S1; with tRNA; read-out: Kd (nM) w/tRNA

Structure (SMILES)	Kd [nM]
CC[C@H](C)[C@@H]1NC(=O)[C@H](CCCNC(=N)N)NC(=O)[C@H](CCCNC(=N)N)NC(=O)CNC(=O)[C@H](CCCCN)NC(=O)[C@H](CCCNC(=N)N)NC(=O)[C@H]([C@@H](C)O)NC(=O)[C@H](CCCNC(=N)N)NC(=O)[C@H](C(C)C)NC(=O)[C@H](CCC(N)=O)NC(=O)[C@@H]2CCCN2C(=O)[C@H]2CCCN2C(=O)[C@H]([C@@H](C)CC)NC(=O)[C@H](CCCNC(=N)N)NC1=O [JB-61] (cyclo(QVRTRKGRRIRI[dP]P))	> 1000
CC[C@H](C)[C@@H]1NC(=O)[C@H](CCCNC(=N)N)NC(=O)[C@H](CCCNC(=N)N)NC(=O)CNC(=O)[C@H](CCCCN)NC(=O)[C@H](CCCNC(=N)N)NC(=O)[C@H]([C@@H](C)O)NC(=O)[C@H](CCCNC(=N)N)NC(=O)[C@H](CC(=O)O)NC(=O)[C@H](CCCNC(=N)N)NC(=O)[C@@H]2CCCN2C(=O)[C@H]2CCCN2C(=O)[C@H]([C@@H](C)CC)NC(=O)[C@H](CCCNC(=N)N)NC1=O [JB-64] (cyclo(RDRTRKGRRIRI[dP]P))	> 1000
CC[C@H](C)[C@@H]1NC(=O)[C@H](CCCNC(=N)N)NC(=O)[C@H](CCCNC(=N)N)NC(=O)CNC(=O)[C@H](CCCCN)NC(=O)[C@H](CCC(N)=O)NC(=O)[C@H]([C@@H](C)O)NC(=O)[C@H](CCCNC(=N)N)NC(=O)[C@H](C(C)C)NC(=O)[C@H](CCCNC(=N)N)NC(=O)[C@@H]2CCCN2C(=O)[C@H]2CCCN2C(=O)[C@H]([C@@H](C)CC)NC(=O)[C@H](CCCNC(=N)N)NC1=O [JB-67] (cyclo(RVRTQKGRRIRI[dP]P))	> 1000
CC[C@H](C)[C@@H]1NC(=O)[C@H](CCCNC(=N)N)NC(=O)[C@H](CCCNC(=N)N)NC(=O)CNC(=O)[C@H](CCCCN)NC(=O)[C@H](Cc2ccc(O)cc2)NC(=O)[C@H]([C@@H](C)O)NC(=O)[C@H](CCCNC(=N)N)NC(=O)[C@H](C(C)C)NC(=O)[C@H](CCCNC(=N)N)NC(=O)[C@@H]2CCCN2C(=O)[C@H]2CCCN2C(=O)[C@H]([C@@H](C)CC)NC(=O)[C@H](CCCNC(=N)N)NC1=O [JB-68] (cyclo(RVRTYKGRRIRI[dP]P))	> 1000
CC[C@H](C)[C@@H]1NC(=O)[C@H](CCCNC(=N)N)NC(=O)[C@H](Cc2ccc(O)cc2)NC(=O)CNC(=O)[C@H](CCCCN)NC(=O)[C@H](CCCNC(=N)N)NC(=O)[C@H]([C@@H](C)O)NC(=O)[C@H](CCCNC(=N)N)NC(=O)[C@H](C(C)C)NC(=O)[C@H](CCCNC(=N)N)NC(=O)[C@@H]2CCCN2C(=O)[C@H]2CCCN2C(=O)[C@H]([C@@H](C)CC)NC(=O)[C@H](CCCNC(=N)N)NC1=O [JB-69] (cyclo(RVRTRKGYRIRI[dP]P))	> 1000
CC[C@H](C)[C@@H]1NC(=O)[C@H](CCCNC(=N)N)NC(=O)[C@H](Cc2c[nH]c3ccccc23)NC(=O)CNC(=O)[C@H](CCCCN)NC(=O)[C@H](CCCNC(=N)N)NC(=O)[C@H]([C@@H](C)O)NC(=O)[C@H](CCCNC(=N)N)NC(=O)[C@H](C(C)C)NC(=O)[C@H](CCCNC(=N)N)NC(=O)[C@@H]2CCCN2C(=O)[C@H]2CCCN2C(=O)[C@H]([C@@H](C)CC)NC(=O)[C@H](CCCNC(=N)N)NC1=O [JB-70] (cyclo(RVRTRKGWRIRI[dP]P))	> 1000
CC[C@H](C)[C@@H]1NC(=O)[C@H](CCCCN)NC(=O)[C@H](CCCNC(=N)N)NC(=O)CNC(=O)[C@H](CCCCN)NC(=O)[C@H](CCCNC(=N)N)NC(=O)[C@H]([C@@H](C)O)NC(=O)[C@H](CCCNC(=N)N)NC(=O)[C@H](C(C)C)NC(=O)[C@H](CCCNC(=N)N)NC(=O)[C@@H]2CCCN2C(=O)[C@H]2CCCN2C(=O)[C@H]([C@@H](C)CC)NC(=O)[C@H](CCCNC(=N)N)NC1=O [JB-71] (cyclo(RVRTRKGRKIRI[dP]P))	> 1000
CC[C@H](C)[C@@H]1NC(=O)[C@H](CCCNC(=N)N)NC(=O)[C@H](CCCNC(=N)N)NC(=O)CNC(=O)[C@H](CCCCN)NC(=O)[C@H](CCCNC(=N)N)NC(=O)[C@H]([C@@H](C)O)NC(=O)[C@@H](CCCNC(=N)N)NC(=O)[C@H](C(C)C)NC(=O)[C@H](CCCNC(=N)N)NC(=O)[C@@H]2CCCN2C(=O)[C@H]2CCCN2C(=O)[C@H]([C@@H](C)CC)NC(=O)[C@H](CCCNC(=N)N)NC1=O [JB-72] (cyclo(RV[dR]TRKGRRIRI[dP]P))	> 1000
CC[C@H](C)[C@@H]1NC(=O)[C@H](Cc2ccc(O)cc2)NC(=O)[C@H](CCCNC(=N)N)NC(=O)CNC(=O)[C@H](CCCCN)NC(=O)[C@H](CCCNC(=N)N)NC(=O)[C@H]([C@@H](C)O)NC(=O)[C@H](CCCNC(=N)N)NC(=O)[C@H](C(C)C)NC(=O)[C@H](CCCNC(=N)N)NC(=O)[C@@H]2CCCN2C(=O)[C@H]2CCCN2C(=O)[C@H]([C@@H](C)CC)NC(=O)[C@H](CCCNC(=N)N)NC1=O [JB-73] (cyclo(RVRTRKGRYIRI[dP]P))	> 1000
CC[C@H](C)[C@@H]1NC(=O)[C@H](Cc2c[nH]c3ccccc23)NC(=O)[C@H](CCCNC(=N)N)NC(=O)CNC(=O)[C@H](CCCCN)NC(=O)[C@H](CCCNC(=N)N)NC(=O)[C@H]([C@@H](C)O)NC(=O)[C@H](CCCNC(=N)N)NC(=O)[C@H](C(C)C)NC(=O)[C@H](CCCNC(=N)N)NC(=O)[C@@H]2CCCN2C(=O)[C@H]2CCCN2C(=O)[C@H]([C@@H](C)CC)NC(=O)[C@H](CCCNC(=N)N)NC1=O [JB-74] (cyclo(RVRTRKGRWIRI[dP]P))	> 1000
CC[C@H](C)[C@@H]1NC(=O)[C@H](CCCNC(=N)N)NC(=O)[C@H](CCCNC(=N)N)NC(=O)CNC(=O)[C@H](CCCCN)NC(=O)[C@H](CCCNC(=N)N)NC(=O)[C@H]([C@@H](C)O)NC(=O)[C@H](CCCNC(=N)N)NC(=O)[C@H](C(C)C)NC(=O)[C@H](CCCNC(=N)N)NC(=O)[C@@H]2CCCN2C(=O)[C@H]2CCCN2C(=O)[C@H]([C@@H](C)CC)NC(=O)[C@H](Cc2c[nH]cn2)NC1=O [JB-77] (cyclo(RVRTRKGRRIHI[dP]P))	> 1000
CC[C@H](C)[C@@H]1NC(=O)[C@H](CCCNC(=N)N)NC(=O)[C@H](CCCNC(=N)N)NC(=O)CNC(=O)[C@H](CCCCN)NC(=O)[C@H](CCCNC(=N)N)NC(=O)[C@H]([C@@H](C)O)NC(=O)[C@H](CCCNC(=N)N)NC(=O)[C@H](C(C)C)NC(=O)[C@H](CCCNC(=N)N)NC(=O)[C@@H]2CCCN2C(=O)[C@H]2CCCN2C(=O)[C@H]([C@@H](C)CC)NC(=O)[C@H](Cc2ccc(O)cc2)NC1=O [JB-78] (cyclo(RVRTRKGRRIYI[dP]P))	> 1000
CC[C@H](C)[C@@H]1NC(=O)[C@H](CCCNC(=N)N)NC(=O)[C@H](CCCNC(=N)N)NC(=O)CNC(=O)[C@H](CCCCN)NC(=O)[C@H](CCCNC(=N)N)NC(=O)[C@H]([C@@H](C)O)NC(=O)[C@H](CCCNC(=N)N)NC(=O)[C@H](C(C)C)NC(=O)[C@H](CCCNC(=N)N)NC(=O)[C@@H]2CCCN2C(=O)[C@H]2CCCN2C(=O)[C@H]([C@@H](C)CC)NC(=O)[C@H](Cc2c[nH]c3ccccc23)NC1=O [JB-79] (cyclo(RVRTRKGRRIWI[dP]P))	> 1000
CC[C@H](C)[C@@H]1NC(=O)[C@H](CCCNC(=N)N)NC(=O)[C@H](CCCNC(=N)N)NC(=O)CNC(=O)[C@H](CCCCN)NC(=O)[C@H](CCCNC(=N)N)NC(=O)[C@H]([C@@H](C)O)NC(=O)[C@H](CCCNC(=N)N)NC(=O)[C@H](C(C)C)NC(=O)[C@H](CCCNC(=N)N)NC(=O)[C@@H]2CCCN2C(=O)[C@H]2CCCN2C(=O)[C@H](C)NC(=O)[C@H](CCCNC(=N)N)NC1=O [JB-83] (cyclo(RVRTRKGRRIRA[dP]P))	> 1000
CC[C@H](C)[C@@H]1NC(=O)[C@H](CCCNC(=N)N)NC(=O)[C@H](CCCNC(=N)N)NC(=O)CNC(=O)[C@H](CCCCN)NC(=O)[C@H](CCCNC(=N)N)NC(=O)[C@H]([C@@H](C)O)NC(=O)[C@H](CCCNC(=N)N)NC(=O)[C@H](C(C)C)NC(=O)[C@H](CCCCNC(=N)N)NC(=O)[C@@H]2CCCN2C(=O)[C@H]2CCCN2C(=O)[C@H]([C@@H](C)CC)NC(=O)[C@H](CCCNC(=N)N)NC1=O [KP-Y-01] (cyclo([hArg]VRTRKGRRIRI[dP]P))	150
